Data taken from patent publication EP0891764B1, “Ethanolic solutions of N-pentadecanoylisoleucine and use thereof in cosmetics” (KASHIMA OIL COMPANY, priority 1997, dated 1999).

Tests used:
[1] = tested on: male mice aged 8 weeks of C3H series; test: Hair growth (retrichogenous) test on depilated backs of mice, visual observation versus ethanol only; format: in vivo; design: key: ⓞ: rapid and excellent retrichogenous action; ○: rapid and good retrichogenous action; Δ: slow and slight retrichogenous action; details: 1% by weight in ethanol, 0.1 mℓ applied to depilated back once a day over 3 weeks; visual comparison with ethanol only
Source text: The results are given also in Table 1. […] Table 1

[2] = Solubility in 70% ethanol at 10°C
Description: A group of eight male mice aged 8 weeks of C3H series with a body weight of 18 to 24g was subjected to depilation at a back portion thereof in a size of about 2× 3.5 cm. Then, each of the N-acylamino acid compounds as shown in Table 1 was dissolved in ethanol to a concentration of 1% by weight as a sample to be tested. Then 0.1 mℓ of the sample were applied to the depilated back portions of the mice once a day over a period of 3 weeks to visually observe the hair growth state. An evaluation was made of the hair growth effect by visually observing the state of trichogenous promotion in comparison with the back portions coated only with ethanol on the basis of the criterion in Table 1.

Row | SMILES | Retrichogenous effect [1] | Solubility (w/w %) [2]
1 | CCCCCCCCCCCCCCC(=O)N[C@H](C(=O)O)[C@@H](C)CC [Example 1, N-pentadecanoyl-L-isoleucine] | ⓞ | 4.0 w/w %
2 | CCCCCCCCCCCCCCC(=O)N[C@H](C(=O)O)C(C)C [Comp. Example 4, N-PDNY-L-valine] | ⓞ | 2.5 w/w %
3 | CCCCCCCCCCCCCCC(=O)N[C@@H](CC(C)C)C(=O)O [Comp. Example 2, N-PDNY-L-leucine] | ⓞ | 2.1 w/w %
4 | CCCCCCCCCCCCCCC(=O)N[C@@H](CCSC)C(=O)O [Comp. Example 3, N-PDNY-L-methionine] | ⓞ | 
5 | CCCCCCCCCCCCCCC(=O)N[C@@H](Cc1ccccc1)C(=O)O [Comp. Example 5, N-PDNY-L-phenyl-alanine] | ⓞ | 3.7 w/w %
6 | CCCCCCCCCCCCCCC(=O)N[C@@H](Cc1ccc(O)cc1)C(=O)O [Comp. Example 6, N-PDNY-L-tyrosine] | ⓞ | 0.7 w/w %
7 | CCCCCCCCCCCCCCC(=O)N[C@@H](CC(=O)O)C(=O)O [Comp. Example 7, N-PDNY-L-asparatic acid] | ○ | 0.3 w/w %
8 | CCCCCCCCCCCCCCC(=O)N[C@@H](C)C(=O)O [Comp. Example 1, N-PDNY-L-alanine] | ⓞ | 0.8 w/w %
